In BindingDB's records for doi:10.1016/j.chembiol.2014.09.011 (Astrazeneca R&D, 2014):

Legend:
Assay in all cases: AMPD Enzymatic Activity Assay
Conditions in all cases: pH 7.4
AMP deaminase 3 = target: T1, AMP deaminase 3 (Homo sapiens, UniProt Q01432)
T1 sequence (Q01432 whole entry): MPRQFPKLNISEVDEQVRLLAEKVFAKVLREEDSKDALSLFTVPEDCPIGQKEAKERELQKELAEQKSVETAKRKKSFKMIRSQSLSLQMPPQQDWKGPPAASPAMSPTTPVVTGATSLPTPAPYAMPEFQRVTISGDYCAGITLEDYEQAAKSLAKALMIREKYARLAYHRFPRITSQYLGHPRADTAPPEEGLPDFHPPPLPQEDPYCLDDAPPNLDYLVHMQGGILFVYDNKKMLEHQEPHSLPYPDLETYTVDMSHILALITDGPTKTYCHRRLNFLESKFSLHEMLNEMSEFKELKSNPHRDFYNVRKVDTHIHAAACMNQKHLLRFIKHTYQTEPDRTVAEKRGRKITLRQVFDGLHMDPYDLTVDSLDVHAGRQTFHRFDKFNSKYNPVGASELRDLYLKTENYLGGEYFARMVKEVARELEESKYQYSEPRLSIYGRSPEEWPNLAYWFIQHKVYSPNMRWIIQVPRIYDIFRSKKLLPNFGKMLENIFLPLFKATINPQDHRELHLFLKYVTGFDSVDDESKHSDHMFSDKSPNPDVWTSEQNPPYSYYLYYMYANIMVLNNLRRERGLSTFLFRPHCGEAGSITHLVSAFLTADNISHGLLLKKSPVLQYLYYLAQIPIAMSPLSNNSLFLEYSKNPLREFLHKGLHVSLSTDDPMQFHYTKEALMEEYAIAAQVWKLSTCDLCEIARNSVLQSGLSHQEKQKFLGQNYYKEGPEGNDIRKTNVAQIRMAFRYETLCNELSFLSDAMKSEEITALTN
Method: (§1) AMPD1 was added to buffer A (50 mM HEPES, 150 mM KCl, 5 mM MgCl2, and 0.5 mMglutathione [pH 7.4]) to a concentration of 10 nM. A substrate mix consistingof 2mMNADPH, 6mMa-ketoglutarate, 8mMAMP, and 15 U GDH was prepared in buffer A. Substrate mix ([…]) was added to the plate, followed by centrifugation and incubation for 1 hr. Detection was by absorbance at 340 nm following the conversion of NADPH to NADP+. Recombinant AMPD enzyme activity assays were performed in a 384-well format using the same conditions as described above, except the assay volume was […] and the AMP concentration for the AMPD2 assay was 8 mM. Different AMPD enzyme concentrations were used to have linear reactions: hAMPD1 (4 nM), hAMPD2 (38 nM), hAMPD3 (1 nM), rAMPD1 (116 nM), rAMPD2 (53 nM), rAMPD3 (31 nM), and mAMPD1 (816 nM).

AMP deaminase 2 = target: T2, AMP deaminase 2 (Homo sapiens, UniProt Q01433)
T2 sequence (Q01433 whole entry): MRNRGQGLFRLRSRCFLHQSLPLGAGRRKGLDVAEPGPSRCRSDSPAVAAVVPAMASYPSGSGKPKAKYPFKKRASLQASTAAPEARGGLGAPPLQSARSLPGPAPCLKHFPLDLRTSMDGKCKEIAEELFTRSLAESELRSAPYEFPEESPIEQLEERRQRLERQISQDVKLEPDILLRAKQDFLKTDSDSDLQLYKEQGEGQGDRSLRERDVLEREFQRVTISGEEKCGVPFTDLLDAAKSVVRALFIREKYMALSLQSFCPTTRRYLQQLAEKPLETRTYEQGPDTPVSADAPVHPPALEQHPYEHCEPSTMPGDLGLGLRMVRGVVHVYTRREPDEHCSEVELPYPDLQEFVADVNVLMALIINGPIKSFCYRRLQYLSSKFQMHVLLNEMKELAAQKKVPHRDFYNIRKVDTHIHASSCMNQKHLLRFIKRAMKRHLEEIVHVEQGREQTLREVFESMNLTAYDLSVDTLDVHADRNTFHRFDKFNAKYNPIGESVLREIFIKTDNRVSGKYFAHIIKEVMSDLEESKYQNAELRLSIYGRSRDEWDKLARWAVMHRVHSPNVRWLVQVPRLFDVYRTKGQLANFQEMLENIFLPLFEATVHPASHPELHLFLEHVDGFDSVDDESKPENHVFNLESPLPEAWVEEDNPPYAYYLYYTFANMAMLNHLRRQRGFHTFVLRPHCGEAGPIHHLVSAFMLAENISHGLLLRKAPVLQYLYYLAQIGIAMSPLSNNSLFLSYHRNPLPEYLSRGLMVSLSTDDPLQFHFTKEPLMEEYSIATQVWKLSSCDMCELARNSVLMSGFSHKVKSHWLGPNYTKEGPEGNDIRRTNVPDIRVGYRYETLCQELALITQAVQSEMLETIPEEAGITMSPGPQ
Method: as §1

AMP deaminase 1 = target: T3, AMP deaminase 1 (Homo sapiens, UniProt P23109)
T3 sequence (P23109 whole entry): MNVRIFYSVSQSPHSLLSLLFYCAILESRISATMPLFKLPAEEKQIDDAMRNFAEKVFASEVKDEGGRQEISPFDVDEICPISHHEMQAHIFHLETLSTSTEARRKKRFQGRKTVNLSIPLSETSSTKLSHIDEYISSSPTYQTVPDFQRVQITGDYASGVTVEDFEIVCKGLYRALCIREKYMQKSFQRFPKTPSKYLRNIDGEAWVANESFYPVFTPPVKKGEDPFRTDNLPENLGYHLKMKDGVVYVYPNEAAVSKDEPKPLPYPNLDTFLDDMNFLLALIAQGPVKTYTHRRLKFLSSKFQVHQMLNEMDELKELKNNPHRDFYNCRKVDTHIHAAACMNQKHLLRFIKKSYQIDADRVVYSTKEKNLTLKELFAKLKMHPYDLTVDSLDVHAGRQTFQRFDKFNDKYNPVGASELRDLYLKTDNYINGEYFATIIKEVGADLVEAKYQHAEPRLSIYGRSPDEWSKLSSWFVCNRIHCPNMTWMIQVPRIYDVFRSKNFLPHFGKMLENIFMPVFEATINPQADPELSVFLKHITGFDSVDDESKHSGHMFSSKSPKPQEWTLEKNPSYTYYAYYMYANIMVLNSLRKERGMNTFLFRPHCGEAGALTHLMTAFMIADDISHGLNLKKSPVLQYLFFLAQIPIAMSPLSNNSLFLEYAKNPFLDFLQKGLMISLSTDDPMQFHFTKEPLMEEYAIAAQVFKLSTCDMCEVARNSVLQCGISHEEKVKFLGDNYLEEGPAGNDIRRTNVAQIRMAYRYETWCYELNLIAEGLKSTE
Method: as §1

| IC50 (AMP deaminase 3) | IC50 (AMP deaminase 2) | IC50 (AMP deaminase 1) | SMILES |
| --- | --- | --- | --- |
| 7.3 µM | 32 µM | 9.2 µM | C[C@@H](NCc1ccc(-c2ccc(C(=O)O)cn2)cc1)c1cccc2ccncc12 [6-[4-({[(1R)-1-(isoquinolin-8-yl)ethyl]amino}methyl)phenyl]pyridine-3-carboxylic acid (Compound 2)] |
| 0.075 µM | 0.016 µM | 0.038 µM | C[C@H](NCc1ccc(-c2ccc(C(=O)O)cn2)cc1)c1cccc2ccncc12 [6-[4-({[(1S)-1-(isoquinolin-8-yl)ethyl]amino}methyl)phenyl]pyridine-3-carboxylic acid (Compound 3)] |
